Experimental data published in patent publication US11760744B2, “Fused ring compounds” (Genentech, Inc., priority 2018, dated 2023).

Columns and labels:
[1] = Whole blood stability assay; format: in vitro ADME; settings: fresh whole blood, drug 1 μM, 37° C., 180 minutes incubation
Description: Whole Blood Stability Assay A whole blood stability assay was performed using fresh blood with a drug final concentration of 1 μM. The drug-blood mixtures were incubated at 37° C. for 180 minutes.

K-Ras G12C [2] = target: T1, K-Ras G12C (Homo sapiens, UniProt P01116, G12C); assay: Western blot assay for in cell alkylation of K-Ras G12C (HCC1171 cells); format: cell-based; set-up: endogenous in cells; host or cells: HCC1171; settings: 18 hours at 37° C., 7 point dose response
Method in brief: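 HCC1171 cells exposed to compounds for 18 h at 37° C, lysed, and analysed by SDS-PAGE/western blot with anti-K-Ras antibody and fluorescent secondary. Alkylated K-Ras separated by band shift; % alkylation = FI(alkylated)/(FI(alkylated)+FI(unalkylated))×100, IC50 from 7-point dose response.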
Target sequence in this assay (P01116 1-188 isoform P01116-2 G12C): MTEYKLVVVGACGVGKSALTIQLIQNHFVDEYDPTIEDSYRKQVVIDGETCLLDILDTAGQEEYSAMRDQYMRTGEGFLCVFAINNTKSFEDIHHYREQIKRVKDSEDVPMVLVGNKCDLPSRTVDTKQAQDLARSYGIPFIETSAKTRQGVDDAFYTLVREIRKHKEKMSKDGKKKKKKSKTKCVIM

K-Ras G12C [3] = target: T1, K-Ras G12C; assay: K-Ras G12C, SOS1, Raf RBD HTRF assay for inhibition of GTP exchange; format: biochemical; set-up: K-Ras G12C (residues 2-188) and SOS1 (residues 564-1049) had N-terminal 6-His; made in house; host or cells: E. coli; settings: 18 hours preincubation with K-Ras G12C at room temperature; SOS1-mediated GTP exchange
Method in brief: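 After 18 h at room temperature with compound, SOS1 (1.25 nM final) started exchange to GTP (150 μM final). C-Raf RBD, Tb-anti-FLAG and D2-anti-his (50, 1 and 12.5 nM) were then added. The 665/615 nm HTRF ratio was read after 2 h; buffer was HEPES/NaCl, 1 mM MgCl2, BSA, Tween-20 and DTT.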
Target sequence in this assay (P01116 2-188 isoform P01116-2 G12C): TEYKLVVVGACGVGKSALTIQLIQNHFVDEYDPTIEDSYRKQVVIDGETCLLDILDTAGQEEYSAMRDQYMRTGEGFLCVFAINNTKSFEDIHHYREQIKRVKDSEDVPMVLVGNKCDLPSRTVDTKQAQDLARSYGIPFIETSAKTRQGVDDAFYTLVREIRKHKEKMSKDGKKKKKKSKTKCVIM

[4] = target: T2, K-Ras G12C mutant protein (Homo sapiens, UniProt P01116, G12C); assay: K-Ras G12C HTRF assay; format: biochemical; settings: Table 1; unit or assay not given; several values in one cell
T2 construct: K-Ras G12C (residues 2-188) and SOS1 (residues 564-1049) had N-terminal 6-His; made in house; host or cells: E. coli
T2 sequence (P01116 2-188 isoform P01116-2 G12C): as above
Description: In the above definition of R^2, the electrophilic moiety that is capable of forming a covalent bond with a cysteine residue is determined via K-Ras G12C-alkylation studies and Homogeneous Time Resolved Fluorescence (HTRF) assays. The G12C mutation of the K-Ras gene is a change in amino acid from glycine to cysteine at the 12th amino acid. The compounds according to the present disclosure were discovered using the HTRF assay and the K-Ras G12C-alkylation assay, as further detailed elsewhere herein below, and then NMR spectroscopy was later used to validate the specificity with which the molecule was attaching to G12C.

SMILES: C=CC(=O)N1CCN(c2nc(OC[C@@H]3CCCN3C)nc3c2C[C@@H](C)[C@H](c2c(C(F)(F)F)ccc(N)c2F)C3)[C@@H](C)C1 (single isomer, unassigned) [Example 23b]
- half-life at 1 μM [1]: 4.67 h
- EC50 (K-Ras G12C [2]): 6.6 nM
- IC50 (K-Ras G12C [3]): < 10 nM

SMILES: C=CC(=O)N1CCN(c2ncnc3c2CC(C(C)C)C(c2cc(O)cc4ccccc24)C3)CC1 (stereo not shown) [Example 16, 1-(4-(7-(3-hydroxynaphthalen-1-yl)-6-isopropyl-5,6,7,8-tetrahydroquinazolin-4-yl)piperazin-1-yl)prop-2-en-1-one]
- IC50 [4]: 120 nM
- EC50 (K-Ras G12C [2]): 1200 nM
- IC50 (K-Ras G12C [3]): 120 nM

SMILES: C=C(F)C(=O)N1CCN(c2nc(OC[C@@H]3C[C@@H](F)CN3C)nc3c2C[C@@H](C)[C@H](c2c(F)c(N)cc(C)c2C(F)(F)F)C3)C[C@@H]1CC#N (single isomer, unassigned) [Example 38b]
- half-life at 1 μM [1]: > 9 h
- EC50 (K-Ras G12C [2]): 3.2 nM
- IC50 (K-Ras G12C [3]): < 10 nM

SMILES: C=CC(=O)N1CC2(CCN(c3nc(OCC4CCCN4C)nc4c3CCC(c3cc(O)cc5ccccc35)C4)CC2)C1 (stereo not shown) [Example 51, 1-[7-[7-(3-hydroxy-1-naphthyl)-2-[(1-methylpyrrolidin-2-yl)methoxy]-5,6,7,8-tetrahydroquinazolin-4-yl]-2,7-diazaspiro[3.5]nonan-2-yl]prop-2-en-1-one]
- IC50 [4]: 46 nM
- EC50 (K-Ras G12C [2]): 330 nM
- IC50 (K-Ras G12C [3]): 46 nM

SMILES: C=C(F)C(=O)N1CCN(c2nc(OC[C@@H]3CCCN3C)nc3c2CC(C)C(c2c(F)c(N)cc(C)c2C(F)(F)F)C3)CC1CC#N (single isomer, unassigned) [Example 34d]
- half-life at 1 μM [1]: > 9 h
- EC50 (K-Ras G12C [2]): 6.7 nM
- IC50 (K-Ras G12C [3]): < 10 nM

SMILES: C=CC(=O)N1CCN(c2nc(OC[C@@H]3CCCN3C)nc3c2CC[C@H](c2cc(O)cc4ccccc24)C3)[C@@H](C)C1 (single isomer, unassigned) [Example 28b]
- half-life at 1 μM [1]: 7 h
- EC50 (K-Ras G12C [2]): 23 nM
- IC50 (K-Ras G12C [3]): < 10 nM

SMILES: C=CC(=O)N1CCN(c2ncnc3c2CCC(c2c(C)ccc4cn[nH]c24)C3)CC1 (stereo not shown) [Example 17, 1-[4-[7-(6-methyl-1H-indazol-7-yl)-5,6,7,8-tetrahydroquinazolin-4-yl]piperazin-1-yl]prop-2-en-1-one]
- IC50 [4]: 700 nM
- EC50 (K-Ras G12C [2]): 6700 nM
- IC50 (K-Ras G12C [3]): 700 nM

SMILES: C=CC(=O)N1CCN(c2nc(OC[C@@H]3CCCN3C)nc3c2C[C@@H](C)[C@H](c2c(F)c(N)cc(C)c2C(F)(F)F)C3)[C@@H](C)C1 (single isomer, unassigned) [Example 12b]
- half-life at 1 μM [1]: > 9 h
- EC50 (K-Ras G12C [2]): 3.3 nM
- IC50 (K-Ras G12C [3]): < 10 nM

SMILES: C=CC(=O)N1CCN(c2nc(OC[C@@H]3C[C@@H](F)CN3C)nc3c2C[C@@H](C)[C@H](c2c(F)c(N)cc(C)c2C(F)(F)F)C3)[C@@H](C)C1 (single isomer, unassigned) [Example 36b]
- half-life at 1 μM [1]: > 9 h
- EC50 (K-Ras G12C [2]): 6 nM
- IC50 (K-Ras G12C [3]): < 10 nM

SMILES: C=CC(=O)N1CCN(c2nc(OC[C@@H]3CCCN3C)nc3c2C[C@@H](C)[C@H](c2nc(N)ccc2C(F)(F)F)C3)[C@@H](C)C1 (single isomer, unassigned) [Example 41b]
- half-life at 1 μM [1]: 3.33 h
- EC50 (K-Ras G12C [2]): 8.1 nM
- IC50 (K-Ras G12C [3]): < 10 nM

SMILES: C=C(F)C(=O)N1CCN(c2nc(OC[C@@H]3CCCN3C)nc3c2C[C@@H](C)[C@H](c2c(F)c(N)cc(C)c2C(F)(F)F)C3)C[C@@H]1CC#N (single isomer, unassigned) [Example 34c]
- half-life at 1 μM [1]: > 9 h
- EC50 (K-Ras G12C [2]): 14 nM
- IC50 (K-Ras G12C [3]): < 10 nM

SMILES: C=CC(=O)N1CCN(c2nc(OC[C@@H]3CCCN3C)nc3c2C[C@@H](C)[C@H](c2nc(N)cc(C)c2C(F)(F)F)C3)[C@@H](C)C1 (single isomer, unassigned) [Example 21b]
- half-life at 1 μM [1]: > 9 h
- EC50 (K-Ras G12C [2]): 6 nM
- IC50 (K-Ras G12C [3]): < 10 nM

SMILES: C=CC(=O)N1CCN(c2ncnc3c2CC(C)C(c2cc(O)cc4ccccc24)C3)CC1 (stereo not shown) [Example 39, 1-(4-(7-(3-hydroxynaphthalen-1-yl)-6-methyl-5,6,7,8-tetrahydroquinazolin-4-yl)piperazin-1-yl)prop-2-en-1-one]
- IC50 [4]: 180 nM
- EC50 (K-Ras G12C [2]): 720 nM
- IC50 (K-Ras G12C [3]): 180 nM

SMILES: C=CC(=O)N1CCN(c2nc(OCC3CCCN3C)nc3c2CCC(c2cc(O)cc4ccccc24)C3)C(CC#N)C1 (stereo not shown) [Example 60, 2-(4-acryloyl-1-(7-(3-hydroxynaphthalen-1-yl)-2-((1-methylpyrrolidin-2-yl)methoxy)-5,6,7,8-tetrahydroquinazolin-4-yl)piperazin-2-yl)acetonitrile]
- IC50 [4]: 26 nM
- EC50 (K-Ras G12C [2]): 1300 nM
- IC50 (K-Ras G12C [3]): 26 nM

SMILES: C=CC(=O)N1CCN(c2ncnc3c2CCC(c2c(C)ccc4[nH]ncc24)C3)CC1 (racemic) [Example 2, 1-(4-(7-(5-methyl-1H-indazol-4-yl)-5,6,7,8-tetrahydroquinazolin-4-yl)piperazin-1-yl)prop-2-en-1-one]
- IC50 [4]: 840 nM
- EC50 (K-Ras G12C [2]): 6100 nM
- IC50 (K-Ras G12C [3]): 840 nM

SMILES: C=CC(=O)N1CCN(c2nc(OC[C@@H]3CCCN3C)nc3c2C[C@@H](C)[C@H](c2nc(N)cc(C)c2C(F)(F)F)C3)CC1 (single isomer, unassigned) [Example 20a]
- half-life at 1 μM [1]: 3.83 h
- EC50 (K-Ras G12C [2]): 14 nM
- IC50 (K-Ras G12C [3]): < 10 nM

SMILES: CN(C)C/C=C/C(=O)Nc1cc2c(Nc3ccc(F)c(Cl)c3)ncnc2cc1O[C@H]1CCOC1 [Afatinib, reference compound]
- half-life at 1 μM [1]: 1.25 h

SMILES: C=CC(=O)N1CCN(c2nc(OC[C@@H]3C[C@@H](F)CN3C)nc3c2CC[C@H](c2cc(O)cc4ccccc24)C3)[C@@H](C)C1 (single isomer, unassigned) [Example 31a]
- half-life at 1 μM [1]: 6.83 h
- EC50 (K-Ras G12C [2]): 13 nM
- IC50 (K-Ras G12C [3]): < 10 nM

SMILES: C=CC(=O)N1CCN(c2nc(OC[C@@H]3CCCN3C)nc3c2C[C@@H](C)[C@H](c2cc(O)cc4ccccc24)C3)[C@@H](C)C1 (single isomer, unassigned) [Example 22b]
- half-life at 1 μM [1]: > 9 h
- EC50 (K-Ras G12C [2]): 6.1 nM
- IC50 (K-Ras G12C [3]): < 10 nM

SMILES: C=CC(=O)N1CCN(c2nc(OC[C@@H]3CCCN3C)nc3c2C[C@@H](C)[C@H](c2cccc4c2CCC4)C3)C[C@H]1CC#N (single isomer, unassigned) [Example 35b]
- half-life at 1 μM [1]: 1.52 h
- EC50 (K-Ras G12C [2]): 17 nM
- IC50 (K-Ras G12C [3]): 11 nM

SMILES: C=CC(=O)N1CCN(c2nc(OC[C@@H]3CCCN3C)nc3c2C[C@@H](C)[C@H](c2cccc4c2CCC4)C3)C[C@@H]1CC#N (single isomer, unassigned) [Example 35d]
- half-life at 1 μM [1]: 1.45 h
- EC50 (K-Ras G12C [2]): 0.98 nM
- IC50 (K-Ras G12C [3]): < 10 nM

SMILES: C=CC(=O)N1CCN(c2nc(OC[C@@H]3C[C@@H](F)CN3C)nc3c2C[C@@H](CC)[C@H](c2c(F)c(N)cc(C)c2C(F)(F)F)C3)[C@@H](C)C1 (single isomer, unassigned) [Example 37a]
- half-life at 1 μM [1]: > 9 h
- EC50 (K-Ras G12C [2]): 4.5 nM
- IC50 (K-Ras G12C [3]): < 10 nM

SMILES: C=C(F)C(=O)N1CCN(c2nc(OC[C@@H]3C[C@@H](F)CN3C)nc3c2C[C@@H](C)[C@H](c2c(F)c(N)cc(C)c2C(F)(F)F)C3)C[C@H]1CC#N (single isomer, unassigned) [Example 38c]
- half-life at 1 μM [1]: 2.33 h
- EC50 (K-Ras G12C [2]): 24 nM
- IC50 (K-Ras G12C [3]): 15 nM
